Where a SMILES comes first, the peptide text is derived from it.
How the values were obtained:
Type in all cases: in vivo, BALB/C mice
white blood cells = assay: White blood cell counts in mice during three cycles of Ara-C chemotherapy; conditions: Group 3 (Ara-C+AcSDKP+GM-CSF) vs Group 2 (Ara-C+GM-CSF)
Protocol: (§1) A number of assays were performed to show the effect of combining the hemopoiesis inhibitory factor and hemopoiesis growth factor on the proliferation of hemopoietic cells during chemotherapy.
(§2) Three groups of BALB/C mice were used in this study. Mice of the three groups were treated as follows (i.e., with Ara-C, the abbreviation of cytosine arabinoside, as the cytotoxic agent, AcSDKP as the hemopoiesis inhibitory factor, and GM-CSF as the hemopoiesis growth factor):
(§3) In each group, the animals were subjected to a sequence of three cycles of chemotherapy, i.e., Cycle I (Days 0-20), Cycle II (Days 21-37), and Cycle III (Days 38-56). Note that animals in each group were sacrificed on specific days for collection of blood samples, eliminating the artifact that may have been induced by intensive repetitive bleedings of the same animals.
(§4) Minipump implantations and excisions: The 200 μl capacity ALZET™ osmotic minipump Model 2001 (Alza Corporation, Palo Alto, Calif.) primed to deliver 1.0 μL/hour for 7 days was used for continuously administering the 100 ng/hour of AcSDKP in each cycle. More specifically, during each cycle, AcSDKP primed pumps were implanted s.c. prior to the first administration of Ara-C in the A.M. of day zero and excised in the A.M. of day 7. The first administration of Ara-C was in the A.M. of day zero and the last administration in the A.M. of day 6 (q.d., or once per day).
(§5) Treatment cycle: For the animals of Group 3, each cycle consists of a period in which Ara-C and AcSDKP were administered, a period in which the administered Ara-C and AcSDKP were purged, a period in which GM-CSF was administered, and, finally, a further recovery period. More specifically, after 7 consecutive days of Ara-C treatment during which time AcSDKP was administered by continuous s.c. infusion (see the preceding paragraph), a 2-day period followed so as to allow for purging of both AcSDKP and Ara-C. GM-CSF was then administered for 4 days (b.i.d., or twice per day), and the animals were permitted 4-8 more days at the end of the GM-CSF administration to recover before the initiation of the subsequent cycle (as in Cycles I and II) or before the collection of the last blood samples (as in Cycle III).
(§6) Blood sample collection: Blood samples (maximum attainable volume) for clinical pathology evaluations were collected from mice at euthanasia. The mice were food-fasted overnight prior to blood collection and samples were collected by puncture of the retro-orbital sinus after anesthetization by CO2 inhalation.
(§7) Analysis of blood samples: Hematology data were collected electronically and processed by the HUMMINGBIRD™ computer system (Laboratories Consulting, Inc., Madison, Wis.). Blood samples were processed and evaluated for the parameters specified (polymorphonuclear cell, platelet, and white blood cell counts in 10^3 cells/[…] as shown in Tables 2 and 3) using a Sysmex TOAE-2500 hematology analyzer (TOA Medical Electronics, Kobe, Japan).
(§8) See the right-hand column "percent change," i.e., (cell count from Group 2/cell count from Group 1)×100%, in Table 2. The data in Table 2 (as well as in Table 3) are log transformed to minimize the effect of outliers and the geometric means of the data are used for the analyses. The difference in the means between two test groups are compared for each of three different stages, i.e., chemotherapy (days 0-4, 21-25 and 38-42 in Cycles I, II and III, respectively), nadir (days 5-10, 26-31 and 43-48 in Cycles I, II and III, respectively), or recovery (days 11-20, 32-37 and 49-56 in Cycles I, II and III, respectively). Significant differences are marked by a large dot, which stands for P<0.003, a statistically significant p-value for data compared between two groups combined over the three cycles.

hemopoietic cells = assay: Proliferation of hemopoietic cells and tolerance of multiple cycles of Ara-C chemotherapy
Protocol: as §1, §2, §3, §4
Treatment cycle: For the animals of Group 3, each cycle consists of a period in which Ara-C and AcSDKP were administered, a period in which the administered Ara-C and AcSDKP were purged, a period in which GM-CSF was administered, and, finally, a further recovery period. More specifically, after 7 consecutive days of Ara-C treatment during which time AcSDKP was administered by continuous s.c. infusion (see the preceding paragraph), a 2-day period followed so as to allow for purging of both AcSDKP and Ara-C. […]

platelets = assay: Platelet counts in mice during three cycles of Ara-C chemotherapy; conditions: Group 3 (Ara-C+AcSDKP+GM-CSF) vs Group 2 (Ara-C+GM-CSF)
Protocol: as §1, §2, §3, §4, §5, §6, §7, §8

polymorphonuclear cells = assay: Polymorphonuclear cell counts in mice during three cycles of Ara-C chemotherapy; conditions: Group 3 (Ara-C+AcSDKP+GM-CSF) vs Group 2 (Ara-C+GM-CSF)
Protocol: as §1, §2, §3, §4, §5, §6, §7
as §8, with “The” for “See the right-hand column "percent change," i.e., (cell count from Group 2/cell count from Group 1)×100%, in Table 2. The”

[1] = Cycle I, Chemotherapy (days 0-4)
[2] = Cycle I, Recovery (days 11-20), marked significant
[3] = Cycle II, Chemotherapy (days 21-25)
[4] = Cycle II, Recovery (days 32-37), marked significant
[5] = Cycle III, Chemotherapy (days 38-42)
[6] = Cycle III, Recovery (days 49-56), marked significant

SMILES: CC(=O)N[C@@H](CO)C(=O)N[C@@H](CC(=O)O)C(=O)N[C@@H](CCCCN)C(=O)N1CCC[C@H]1C(=O)O [AcSDKP, N-Acetyl-Ser-Asp-Lys-Pro] (Ac-SDKP-OH)
- Percent change, white blood cell count (white blood cells; [1]): -39.0687%
- Percent change, white blood cell count (white blood cells; Cycle I, Nadir (days 5-10)): -47.8669%
- Percent change, white blood cell count (white blood cells; [2]): 29.1779%
- Percent change, white blood cell count (white blood cells; [3]): -57.7294%
- Percent change, white blood cell count (white blood cells; Cycle II, Nadir (days 26-31)): -10.6607%
- Percent change, white blood cell count (white blood cells; [4]): 44.2989%
- Percent change, white blood cell count (white blood cells; [5]): 19.207%
- Percent change, white blood cell count (white blood cells; Cycle III, Nadir (days 43-48)): -9.4556%
- Percent change, white blood cell count (white blood cells; [6]): 50.2142%
- White blood cell counts, change in words (white blood cells; recovery periods, p=0.0001): significantly increased
- Blood cell levels, effect of AcSDKP present during chemotherapy (hemopoietic cells; Group 3 (Ara-C+AcSDKP+GM-CSF) vs Group 2 (Ara-C+GM-CSF)): contributed to subsequent enhancement of blood cell levels by GM-CSF
- Ability to tolerate multiple cycles of chemotherapy (hemopoietic cells; combined use of AcSDKP and GM-CSF with Ara-C (Group 3)): allows multiple cycles of chemotherapy
- Percent change, platelet count (platelets; [1]): -53.4439%
- Percent change, platelet count (platelets; Cycle I, Nadir (days 5-10), marked significant): 20.9005%
- Percent change, platelet count (platelets; Cycle I, Recovery (days 11-20)): 23.6811%
- Percent change, platelet count (platelets; [3]): 29.203%
- Percent change, platelet count (platelets; Cycle II, Nadir (days 26-31), marked significant): 49.9274%
- Percent change, platelet count (platelets; Cycle II, Recovery (days 32-37)): 13.851%
- Percent change, platelet count (platelets; [5]): 36.6101%
- Percent change, platelet count (platelets; Cycle III, Nadir (days 43-48), marked significant): 32.1586%
- Percent change, platelet count (platelets; Cycle III, Recovery (days 49-56)): -0.7018%
- Platelet counts, change in words (platelets; nadir periods, p=0.0006): significantly increased
- Percent change, polymorphonuclear cell count (polymorphonuclear cells; [1]): -66.466%
- Percent change, polymorphonuclear cell count (polymorphonuclear cells; Cycle I, Nadir (days 5-10)): -27.344%
- Percent change, polymorphonuclear cell count (polymorphonuclear cells; [2]): 52.314%
- Percent change, polymorphonuclear cell count (polymorphonuclear cells; [3]): -44.682%
- Percent change, polymorphonuclear cell count (polymorphonuclear cells; Cycle II, Nadir (days 26-31)): 130.128%
- Percent change, polymorphonuclear cell count (polymorphonuclear cells; [4]): 100.223%
- Percent change, polymorphonuclear cell count (polymorphonuclear cells; [5]): 37.246%
- Percent change, polymorphonuclear cell count (polymorphonuclear cells; Cycle III, Nadir (days 43-48)): 42.105%
- Percent change, polymorphonuclear cell count (polymorphonuclear cells; [6]): 95.829%
- Polymorphonuclear cell counts, change in words (polymorphonuclear cells; recovery periods, p=<0.0001): significantly increased

Source: patent US5595973A, “Protection of hemopoietic cells during chemotherapy or radiotherapy” (Biomeasure Incorporated, priority 1994, dated 1997)
